{"source": "paper PMC10961402", "about": "“Safety, tolerability, pharmacokinetics and pharmacokinetic-pharmacodynamic modeling of cetagliptin in patients with type 2 diabetes mellitus” (Frontiers in Endocrinology, 2024)", "key": {"[1]": {"test_system": "DPP-4 activity", "conditions": "healthy subjects; once-daily oral dose of ≧50 mg, multiple doses; cited from earlier work"}, "[2]": {"target": "T1, plasma DPP-4 activity (Homo sapiens, UniProt P27487)", "T1 construct": "The plasma DPP-4 activity was determined using a fluorescent method with the substrate Gly-Pro-7-amide-4-methylcoumarin; from tissue; host or cells: human plasma (K2-EDTA blood from T2DM patients)", "T1 sequence (P27487 39-766 limits assumed)": "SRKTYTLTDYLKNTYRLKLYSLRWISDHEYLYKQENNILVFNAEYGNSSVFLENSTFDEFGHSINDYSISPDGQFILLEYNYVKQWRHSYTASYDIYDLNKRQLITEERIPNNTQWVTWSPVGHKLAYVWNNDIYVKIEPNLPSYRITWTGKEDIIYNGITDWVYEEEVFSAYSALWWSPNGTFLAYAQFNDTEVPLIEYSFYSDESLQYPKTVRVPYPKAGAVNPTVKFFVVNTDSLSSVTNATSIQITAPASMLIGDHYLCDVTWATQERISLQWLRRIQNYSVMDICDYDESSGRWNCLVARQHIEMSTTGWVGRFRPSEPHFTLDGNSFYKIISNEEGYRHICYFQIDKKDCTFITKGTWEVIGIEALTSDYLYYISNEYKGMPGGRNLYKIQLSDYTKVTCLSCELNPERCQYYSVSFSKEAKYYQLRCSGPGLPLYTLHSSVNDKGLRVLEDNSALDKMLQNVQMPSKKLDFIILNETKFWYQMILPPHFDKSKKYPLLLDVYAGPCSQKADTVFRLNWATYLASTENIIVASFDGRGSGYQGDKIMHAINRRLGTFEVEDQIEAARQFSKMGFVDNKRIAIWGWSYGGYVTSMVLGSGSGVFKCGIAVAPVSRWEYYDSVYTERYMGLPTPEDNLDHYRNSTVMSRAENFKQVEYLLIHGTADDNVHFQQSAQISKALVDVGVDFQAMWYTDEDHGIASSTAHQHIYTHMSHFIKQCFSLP", "assay": "Emax model of plasma concentration vs DPP-4 inhibition", "format": "in vivo", "conditions": "patients with T2DM"}, "[3]": {"assay": "Plasma pharmacokinetics after single and multiple oral doses (non-compartmental analysis)", "format": "in vivo, human", "conditions": "patients with T2DM; for Tmax,ss / Tmax: median (range)", "protocol": "This was a single-center, randomized, double-blind, placebo and positive-controlled, single and multiple oral-dose study. A total of 32 Chinese adults diagnosed with T2DM were recruited for this study and allocated into two dosage groups: 50 mg and 100 mg, each consisting of 16 participants. […] The positive control was designed as open label. […] Subjects underwent medication randomization on day -1, and were assigned the corresponding investigational products. They were orally administered to the drug once every morning on fasting condition for 14 consecutive days. […] After finished the dosing, another OGTT was performed on day 15. Blood samples were collected at designated time points for the analysis of PK/PD and exploratory indicators. Subjects were discharged after completion of the safety assessments on day 19. […] PK parameters were calculated using non-compartmental analysis with Phoenix WinNonlin (version 8.1, Certara, Co., Princeton, NJ, United States). Peak plasma concentration after administration (Cmax) and time to reach Cmax (Tmax) were obtained directly from the observed data, elimination half-life (t1/2) was calculated as ln2/λz using the best fit mode, where λz was the terminal elimination rate constant. Area under the plasma concentration-time curve from zero to the last measurable concentration (AUC0-t) was estimated using the linear trapezoidal method and AUC from zero to infinity (AUC0-∞) was calculated as AUC0-t+Ct/λz, where Ct was the last measured concentration. […] Apparent total plasma clearance after non-intravenous (CL/F) and apparent volume of distribution in terminal phase after non-intravenous (Vz/F) were calculated as Dose/AUC0-∞ and CL/λz, respectively."}, "[4]": {"conditions": "50 mg oral once daily, listed as cetagliptin"}, "[5]": {"conditions": "100 mg oral once daily, listed as cetagliptin"}}}
{"smiles": "C[C@@H]1c2cnc(C(F)(F)F)n2CCN1C(=O)C[C@H](N)Cc1cc(F)c(F)cc1F.O=P(O)(O)O", "note": "[Cetagliptin, cetagliptin]", "values": [{"measurement": "sustained DPP-4 inhibition", "setting": "[1]", "value": "≥ 80", "unit": "%"}, {"measurement": "EC50 (plasma concentration producing half the maximum DPP-4 inhibition)", "setting": "[2]; Emax model", "value": 5.37, "unit": "ng/mL"}, {"measurement": "Emax (maximum DPP-4 inhibition, Emax model)", "setting": "[2]; plasma concentration vs DPP-4 inhibition", "value": 92.47, "unit": "%"}, {"measurement": "RAUC (accumulation ratio of AUC0-24h, day 14/day 1)", "setting": "[3]; 50 mg oral once daily", "value": "2.13 ± 0.225"}, {"measurement": "RCmax (accumulation ratio of Cmax, day 14/day 1)", "setting": "[3]; 50 mg oral once daily", "value": "2.01 ± 0.417"}, {"measurement": "AUC0-24h", "setting": "[3]; 50 mg oral once daily, day 14", "value": "1530 ± 274", "unit": "ng·h/mL"}, {"measurement": "AUC0-∞", "setting": "[3]; 50 mg oral once daily, day 14", "value": "2710 ± 577", "unit": "ng·h/mL"}, {"measurement": "AUC(0-t)", "setting": "[3]; 50 mg oral once daily, day 14", "value": "2510 ± 512", "unit": "ng·h/mL"}, {"measurement": "CLss/F", "setting": "[3]; 50 mg oral once daily, day 14", "value": "33.6 ± 5.86", "unit": "L/h"}, {"measurement": "Cavg", "setting": "[3]; 50 mg oral once daily, day 14", "value": "63.9 ± 11.4", "unit": "ng/mL"}, {"measurement": "Cmax,ss", "setting": "[3]; 50 mg oral once daily, day 14", "value": "162 ± 58.1", "unit": "ng/mL"}, {"measurement": "Vz,ss/F", "setting": "[3]; 50 mg oral once daily, day 14", "value": "2010 ± 610", "unit": "L"}, {"measurement": "t1/2", "setting": "[3]; 50 mg oral once daily, day 14", "value": "41.9 ± 11.0", "unit": "h"}, {"measurement": "CLss/F", "setting": "[3]; 50 mg oral once daily, day 14, listed as cetagliptin", "value": 33.6, "unit": "L/h"}, {"measurement": "Tmax,ss", "setting": "[3]; 50 mg oral once daily, day 14", "value": "1.00 (0.500-5.00) h"}, {"measurement": "RAUC (accumulation ratio of AUC0-24h, day 14/day 1)", "setting": "[3]; [4]", "value": 2.13}, {"measurement": "RCmax (accumulation ratio of Cmax, day 14/day 1)", "setting": "[3]; [4]", "value": 2.01}, {"measurement": "AUC0-24h", "setting": "[3]; 50 mg oral, day 1", "value": "717 ± 86.0", "unit": "ng·h/mL"}, {"measurement": "Cmax", "setting": "[3]; 50 mg oral, day 1", "value": "80.5 ± 23.3", "unit": "ng/mL"}, {"measurement": "Tmax", "setting": "[3]; 50 mg oral, day 1", "value": "2.00 (1.00-4.00) h"}, {"measurement": "RAUC (accumulation ratio of AUC0-24h, day 14/day 1)", "setting": "[3]; 100 mg oral once daily", "value": "1.75 ± 0.305"}, {"measurement": "RCmax (accumulation ratio of Cmax, day 14/day 1)", "setting": "[3]; 100 mg oral once daily", "value": "1.49 ± 0.542"}, {"measurement": "AUC0-24h", "setting": "[3]; 100 mg oral once daily, day 14", "value": "3120 ± 263", "unit": "ng·h/mL"}, {"measurement": "AUC0-∞", "setting": "[3]; 100 mg oral once daily, day 14", "value": "4780 ± 361", "unit": "ng·h/mL"}, {"measurement": "AUC(0-t)", "setting": "[3]; 100 mg oral once daily, day 14", "value": "4580 ± 356", "unit": "ng·h/mL"}, {"measurement": "CLss/F", "setting": "[3]; 100 mg oral once daily, day 14", "value": "32.2 ± 2.57", "unit": "L/h"}, {"measurement": "Cavg", "setting": "[3]; 100 mg oral once daily, day 14", "value": "130 ± 11.0", "unit": "ng/mL"}, {"measurement": "Cmax,ss", "setting": "[3]; 100 mg oral once daily, day 14", "value": "300 ± 46.9", "unit": "ng/mL"}, {"measurement": "Vz,ss/F", "setting": "[3]; 100 mg oral once daily, day 14", "value": "1640 ± 628", "unit": "L"}, {"measurement": "t1/2", "setting": "[3]; 100 mg oral once daily, day 14", "value": "34.9 ± 12.3", "unit": "h"}, {"measurement": "CLss/F", "setting": "[3]; 100 mg oral once daily, day 14, listed as cetagliptin", "value": 32.2, "unit": "L/h"}, {"measurement": "Tmax,ss", "setting": "[3]; 100 mg oral once daily, day 14", "value": "1.00 (0.500-3.00) h"}, {"measurement": "RAUC (accumulation ratio of AUC0-24h, day 14/day 1)", "setting": "[3]; [5]", "value": 1.75}, {"measurement": "RCmax (accumulation ratio of Cmax, day 14/day 1)", "setting": "[3]; [5]", "value": 1.49}, {"measurement": "AUC0-24h", "setting": "[3]; 100 mg oral, day 1", "value": "1830 ± 347", "unit": "ng·h/mL"}, {"measurement": "Cmax", "setting": "[3]; 100 mg oral, day 1", "value": "219 ± 72.3", "unit": "ng/mL"}, {"measurement": "Tmax", "setting": "[3]; 100 mg oral, day 1", "value": "1.00 (1.00-3.00) h"}, {"measurement": "mean t1/2 (half-life)", "setting": "[3]; multiple oral doses, range over 50 mg and 100 mg groups", "value": "34.9 to 41.9", "unit": "h"}, {"measurement": "time of daily dosing after which steady-state conditions were reached", "setting": "[3]; once daily dosing, trough concentrations days 7, 10, 14", "value": 1, "unit": "week"}]}
